Source: BigSolDB 2.1

COc1ccc([C@@H]2CC(=O)c3c(O)cc(O[C@@H]4O[C@H](CO[C@@H]5O[C@@H](C)[C@H](O)[C@@H](O)[C@H]5O)[C@@H](O)[C@H](O)[C@H]4O)cc3O2)cc1O
Details	solubility (mole fraction)
in PEG-400, 298.15 K	0.00633
in PEG-400, 303.15 K	0.00749
in PEG-400, 313.15 K	0.00985
in PEG-400, 323.15 K	0.0124
in PEG-400, 333.15 K	0.0152

solubility (mole fraction)
Details	in ethanol	in isopropanol	in n-butanol	in propylene glycol	in water
298.15 K	3.45e-05	1.53e-05	0.000315	0.000535	1.47e-07
303.15 K	3.95e-05	1.87e-05	0.000359	0.000647	1.52e-07
313.15 K	5.27e-05	2.61e-05	0.000461	0.000886	1.61e-07
323.15 K	6.56e-05	3.82e-05	0.000582	0.00114	1.7e-07
333.15 K	8.45e-05	5.86e-05	0.000715	0.00158	1.8e-07
